Where a name gives a salt, the structure may show the parent alone.
experiment: Test 4: Inhibition of cellular release of amyloid peptide 1-40; format: cell-based, Chinese hamster; conditions: Cricetulus griseus; Test 4, CHO cells transfected with APP, 24 hours with test compound, amyloid peptide 1-40 in supernatant; read-out: Bace IC50
Method: Test 4: Inhibition of Cellular Release of Amyloid Peptide 1-40
Chinese hamster ovary cells are transfected with the gene for amyloid precursor protein. The cells are plated at a density of 8000 cells/well into 96-well microtiter plates and cultivated for 24 hours in DMEM cell culture medium containing 10% FCS. The test compound is added to the cells at various concentrations, and the cells are cultivated for 24 hours in the presence of the test compound. The supernatants are collected, and the concentration of amyloid peptide 1-40 is determined using state of the art immunoassay techniques, for example sandwich ELISA, homogenous time-resolved fluorescence (HTRF) immunoassay, or electro-chemiluminescence immunoassay.

Compound	IC50 [nM]
C[C@@]1(c2cccc(NC(=O)c3ccc(Br)cn3)c2)COCC(N)=N1 [Example 3, 5-Bromo-pyridine-2-carboxylic acid [3-((R)-5-amino-3-methyl-3,6-dihydro-2H-[1,4]oxazin-3-yl)-phenyl]-amide hydrochloride]	17
Cc1cc(Br)cnc1C(=O)Nc1ccc(F)c(C2(C)COCC(N)=N2)c1 (stereo not shown) [Example 64]	4
C[C@@]1(c2cc(NC(=O)c3ncc(Br)cn3)ccc2F)CO[C@@](C)(C(F)(F)F)C(N)=N1 [Example 71, 5-Bromo-pyrimidine-2-carboxylic acid [3-((3R,6R)-6-amino-3,6-dimethyl-6-trifluoromethyl-3,6-dihydro-2H-[1,4]oxazin-3-yl)-4-fluoro-phenyl]-amide hydrochloride]	4
NC1=NC(c2cc(NC(=O)c3ccc(Br)cn3)ccc2F)(C(F)(F)F)CCOC1 (stereo not shown) [Example 99, 5-Bromo-pyridine-2-carboxylic acid [3-(3-amino-5-trifluoromethyl-2,5,6,7-tetrahydro-[1,4]oxazepin-5-yl)-4-fluoro-phenyl]-amide hydrochloride]	100
N#Cc1ccc(C(=O)Nc2ccc(F)c([C@]3(C(F)F)COCC(N)=N3)c2)nc1 [Example 112, 5-Cyano-pyridine-2-carboxylic acid [3-((R)-5-amino-3-difluoromethyl-3,6-dihydro-2H-[1,4]oxazin-3-yl)-4-fluoro-phenyl]-amide hydrochloride]	7
Cl.[2H]c1nc(C(=O)Nc2ccc(F)c([C@]3(C(F)F)COCC(N)=N3)c2)c(C([2H])([2H])[2H])c([2H])c1Br [Example 116, 5-Bromo-4,6-dideutero-3-trideuteromethyl-pyridine-2-carboxylic acid [3-((R)-5-amino-3-difluoromethyl-3,6-dihydro-2H-[1,4]oxazin-3-yl)-4-fluoro-phenyl]-amide hydrochloride]	4
Cc1cc(C#N)cnc1C(=O)Nc1ccc(F)c([C@]2(C(F)F)COCC(N)=N2)c1 [Example 144, 5-Cyano-3-methyl-pyridine-2-carboxylic acid [3-((R)-5-amino-3-difluoromethyl-3,6-dihydro-2H-[1,4]oxazin-3-yl)-4-fluoro-phenyl]-amide]	6
[2H]c1nc(C(=O)Nc2ccc(F)c([C@]3(C(F)F)COCC(N)=N3)c2)c(C([2H])([2H])[2H])c([2H])c1C#N [Example 147, 5-Cyano-4,6-dideutero-3-trideuteromethyl-pyridine-2-carboxylic acid [3-((R)-5-amino-3-difluoromethyl-3,6-dihydro-2H-[1,4]oxazin-3-yl)-4-fluoro-phenyl]-amide]	8
CC#CCOc1cnc(C(=O)Nc2ccc(F)c([C@]3(C(F)F)COCC(N)=N3)c2)cn1 [Example 164]	1
COc1cnc(C(=O)Nc2ccc(F)c([C@]3(C(F)F)COCC(N)=N3)c2)c(N)n1 [Example 175]	4
